# According to paper PMC7217877, “N-AS-triggered SPMs are direct regulators of microglia in a model of Alzheimer’s disease” (Nature Communications, 2020):
# Values joined by “and” are separate entries in the source; they are usually repeats but may differ in a detail not shown here. Equal values may be shown once.
# Tests used:
# neuron [1] = experiment: immunofluorescence of ac-S565 and COX2 in primary cells; format: cell-based, C57BL/6 mice; conditions: Ab 10mM, replicates
# Description: To confirm the generation and roles of N-AS in neurons, cells from E18 C57BL/6 mice were prepared as previously described. Cortices were dissected and then dissociated followed by incubation in papain (Worthington) at 37 °C for 15 min. Neurons were plated on poly-L-lysine-coated coverslips with neuronal culture medium, serum-free Neurobasal medium (Gibco) containing 2% B27 supplements (Gibco), 1 mM Glutamax supplement (Gibco), and 100 U ml^−1 streptomycin/ 100 U ml^−1 penicillin (Gibco) at 37 °C in a humidified atmosphere of 5% CO2. […] Primary astrocyte cultures were prepared from C57BL/6 mice as described previously. In brief, after removal of the meninges, postnatal day 7 (P7) mouse brain tissues were minced and incubated in a rocking water bath at 37 °C for 30 min in the presence of 0.25% trypsin-EDTA (Sigma-Aldrich). […] The human microglia treated with Aβ 1–42 and/or zileuton was incubated with N-AS (2.5 μM, 2 h, Sigma-Aldrich, 01912), and were analyzed for the generation and roles of N-AS.
# Thioflavin S (Sigma-Aldrich) staining was carried out according to previously described procedures. […] The sections were analyzed with a laser-scanning confocal microscope (FV3000; Olympus) or with a BX51 microscope (Olympus). MetaMorph software (Molecular Devices) was used to quantification. Three-dimensional reconstruction of microglia was recorded and analyzed using IMARIS software (Bitplane)[11]. […]
# neuron [2] = experiment: SphK activity in primary cells; format: cell-based, C57BL/6 mice; conditions: Ab 10mM, replicates
# Description: We confirmed S1P formation through SphK1 enzymatic activity measurements as previously described[11] using a UPLC (Ultra performance liquid chromatography) system (Waters). […] After pre-incubation, 1 mM ATP (Amresco, 0220) was added the mixture, and it was incubated at 37 °C for 1 h. The […] reactions were stopped by adding 53 μl of ethanol, and centrifuged at 15,493×g for 5 min. Thirty microliter of the supernatant was then transferred to a sampling glass vial and 5 μl was applied onto a UPLC system for analysis. S1P formation was followed as phosphorylation of (7-nitro-2-1,3-benzoxadiazol-4-yl)-d-erythro (NBD)-sphingosine (Avanti Polar Lipids) to NBD-S1P. Quantification was achieved by comparison with NBD-S1P (Avanti Polar Lipids) standards.
# To confirm the generation and roles of N-AS in neurons, cells from E18 C57BL/6 mice were prepared as previously described. Cortices were dissected and then dissociated followed by incubation in papain (Worthington) at 37 °C for 15 min. […] The human microglia treated with Aβ 1–42 and/or zileuton was incubated with N-AS (2.5 μM, 2 h, Sigma-Aldrich, 01912), and were analyzed for the generation and roles of N-AS.
substance,measurement,setting,value
"Ab: Aβ 1–42 (Invitrogen, 03112) used to induce an AD environment in cells","ac-S565 with COX2, immunofluorescence quantification (Fig 3c)",neuron [1],0.191 and 0.165 and 0.09731 and 0.2737 and 0.2437 and 0.2571
same,SphK activity (Fig 3d),neuron [2],1.391 and 1.001 and 1.873 and 1.345 and 1.437 and 1.609
